Experimental findings from ChEMBL document CHEMBL4002586, “Aurone Mannich base derivatives as promising multifunctional agents with acetylcholinesterase inhibition, anti-β-amyloid aggragation and neuroprotective properties for the treatment of Alzheimer's disease” (Eur J Med Chem, 2017) are described below.

For data set [1], the target named is T1, Acetylcholinesterase (Rattus norvegicus, UniProt P37136).
T1 sequence (P37136 whole entry): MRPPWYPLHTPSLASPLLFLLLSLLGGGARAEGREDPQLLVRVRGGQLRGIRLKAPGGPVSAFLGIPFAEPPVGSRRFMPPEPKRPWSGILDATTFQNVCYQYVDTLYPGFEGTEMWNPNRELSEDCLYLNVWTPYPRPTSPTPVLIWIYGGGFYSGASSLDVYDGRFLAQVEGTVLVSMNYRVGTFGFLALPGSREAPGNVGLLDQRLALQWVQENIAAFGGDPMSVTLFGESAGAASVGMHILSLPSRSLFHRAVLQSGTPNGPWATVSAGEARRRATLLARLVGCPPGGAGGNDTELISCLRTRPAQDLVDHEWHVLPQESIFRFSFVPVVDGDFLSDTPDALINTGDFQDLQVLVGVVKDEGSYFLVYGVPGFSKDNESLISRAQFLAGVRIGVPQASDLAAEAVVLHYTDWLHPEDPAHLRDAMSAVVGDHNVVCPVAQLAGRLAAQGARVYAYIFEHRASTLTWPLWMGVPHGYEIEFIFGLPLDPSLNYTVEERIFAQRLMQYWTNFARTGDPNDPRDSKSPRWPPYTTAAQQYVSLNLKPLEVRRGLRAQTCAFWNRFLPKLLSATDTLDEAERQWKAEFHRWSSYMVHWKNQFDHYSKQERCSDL
Kind of data set: Inhibition of AChE in rat brain cortex homogenates using acetylthiocholine iodide as substrate in presence of BuChE inhibitor tetraisopropyl pyrophosphoramide measured after 15 mins by Ellman's method.

The target of data set [2] is T2, Acetylcholinesterase (Electrophorus electricus, UniProt O42275). Nature of the data set: Inhibition of Electrophorus electricus AChE using acetylthiocholine iodide as substrate measured after 15 mins by Ellman's method. (Ellman's reagent forms a yellow product with free thiols.)
T2 sequence (O42275 whole entry): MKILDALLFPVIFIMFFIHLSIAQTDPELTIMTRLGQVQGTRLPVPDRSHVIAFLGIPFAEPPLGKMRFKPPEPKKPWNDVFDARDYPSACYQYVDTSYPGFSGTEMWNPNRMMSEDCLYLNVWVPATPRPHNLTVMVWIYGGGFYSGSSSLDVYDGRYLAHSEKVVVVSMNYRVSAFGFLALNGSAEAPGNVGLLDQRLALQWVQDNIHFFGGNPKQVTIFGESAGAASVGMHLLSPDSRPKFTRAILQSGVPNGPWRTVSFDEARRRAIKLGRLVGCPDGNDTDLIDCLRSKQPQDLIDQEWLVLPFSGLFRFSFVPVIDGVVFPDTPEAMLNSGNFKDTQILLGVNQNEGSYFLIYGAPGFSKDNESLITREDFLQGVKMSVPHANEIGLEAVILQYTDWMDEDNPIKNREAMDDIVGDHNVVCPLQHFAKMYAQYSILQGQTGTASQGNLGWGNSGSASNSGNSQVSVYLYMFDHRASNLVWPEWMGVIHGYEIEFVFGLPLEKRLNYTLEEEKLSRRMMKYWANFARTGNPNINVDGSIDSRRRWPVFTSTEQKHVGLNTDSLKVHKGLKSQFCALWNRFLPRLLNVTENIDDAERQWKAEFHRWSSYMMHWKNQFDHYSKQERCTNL
Data set [3] concerns the target Acetylcholinesterase (Homo sapiens, UniProt P22303). Nature of the data set: Inhibition of human erythrocyte AChE using acetylthiocholine iodide as substrate measured after 15 mins by Ellman's method.
The target of data set [4] is butyrylcholinesterase (BuChE) (Rattus norvegicus, UniProt Q9JKC1). Nature of the data set: Inhibition of BuChE in rat serum at 50 uM using butyrylthiocholine as substrate measured after 15 mins by Ellman's method relative to control. Particulars: probe butyrylthiocholine.
Sequence of butyrylcholinesterase (BuChE) (Q9JKC1 whole entry): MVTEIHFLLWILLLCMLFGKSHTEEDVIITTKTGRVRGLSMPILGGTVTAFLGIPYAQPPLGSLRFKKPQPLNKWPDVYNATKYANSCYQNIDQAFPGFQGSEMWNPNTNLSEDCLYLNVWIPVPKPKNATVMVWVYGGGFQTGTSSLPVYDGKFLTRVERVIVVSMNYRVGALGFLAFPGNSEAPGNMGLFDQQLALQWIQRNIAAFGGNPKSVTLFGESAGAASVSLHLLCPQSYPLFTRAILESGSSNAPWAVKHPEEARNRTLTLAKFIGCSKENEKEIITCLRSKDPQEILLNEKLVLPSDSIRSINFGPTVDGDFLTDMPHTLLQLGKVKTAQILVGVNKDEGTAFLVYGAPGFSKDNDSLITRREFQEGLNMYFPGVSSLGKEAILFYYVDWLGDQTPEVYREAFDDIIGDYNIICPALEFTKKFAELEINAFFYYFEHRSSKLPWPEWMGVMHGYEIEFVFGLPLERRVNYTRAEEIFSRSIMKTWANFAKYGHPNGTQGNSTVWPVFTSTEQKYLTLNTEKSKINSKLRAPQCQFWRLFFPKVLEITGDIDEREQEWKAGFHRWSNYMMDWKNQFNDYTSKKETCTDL
Data set [5] addresses T2, Acetylcholinesterase. Kind of data set: Mixed-type inhibition of Electrophorus electricus AChE pretreated for 15 mins followed by varying levels of acetylthiocholine iodide substrate addition by Lineweaver-Burk plot analysis.
The nature of data set [6]: Antioxidant activity assessed as inhibition of AAPH-induced peroxyl radical generation at 5 uM measured as trolox equivalent preincubated for 15 mins followed by AAPH addition measured every 60 secs for 90 mins by ORAC-FL assay. Type of data set: functional.
Data set [7] concerns PC-12. Nature of the data set: Cytotoxicity against rat PC12 cells at <50 uM measured after 48 hrs by MTT assay. It counts as cell-based. To be noted: pc-12, 48 h.
Data set [8] relates to PC-12. Kind of data set: Neuroprotective activity against H2O2-induced damage in rat PC12 cells assessed as increase in cell viability at 1 to 50 uM pretreated for 2 hrs followed by H2O2 challenge measured after 24 hrs by MTT assay. Type of data set: functional, cell-based. For orientation: Tetrazolium dyes change colour on reduction, which living cells bring about.
For data set [9], the system named is PC-12. Kind of data set: Neuroprotective activity against H2O2-induced damage in rat PC12 cells assessed as reduction in LDH release at 0.1 to 50 uM pretreated for 2 hrs followed by H2O2 challenge measured after 24 hrs. It counts as functional, cell-based. In general terms: LDH leaks from cells whose membrane has failed.
Data set [10] is described as follows: Metal chelating activity assessed as compound-Zn2+ complex formation at 37.5 uM in presence of ZnCl2 after 30 mins by UV-visible spectrophotometric analysis. It counts as functional.
Data set [11] in a line: Metal chelating activity assessed as compound-Cu2+ complex formation at 37.5 uM in presence of CuCl2 after 30 mins by UV-visible spectrophotometric analysis. It counts as functional.
A short description of data set [12]: Metal chelating activity assessed as compound-Al3+ complex formation at 37.5 uM in presence of AlCl3 after 30 mins by UV-visible spectrophotometric analysis. Type of data set: functional.
Data set [13] can be described thus: Metal chelating activity assessed as compound-Fe2+ complex formation at 37.5 uM in presence of FeSO4 after 30 mins by UV-visible spectrophotometric analysis. It counts as functional.
A short description of data set [14]: Metal chelating activity assessed as mole fraction of compound required to show 2:1 stoichiometry for Cu2+-compound complex at 37.5 uM after 30 mins by UV-vis spectrophotometric method. It counts as functional.
For data set [15], the target named is Amyloid-beta precursor protein (Homo sapiens) (UniProt P05067). Kind of data set: Inhibition of self-induced aggregation of HFIP-treated human amyloid beta (1 to 42 residues) at 25 uM after 24 hrs by thioflavin T-based fluorometric assay relative to control.
Sequence of Amyloid-beta precursor protein (Homo sapiens) (P05067 whole entry, the tested form may be a part): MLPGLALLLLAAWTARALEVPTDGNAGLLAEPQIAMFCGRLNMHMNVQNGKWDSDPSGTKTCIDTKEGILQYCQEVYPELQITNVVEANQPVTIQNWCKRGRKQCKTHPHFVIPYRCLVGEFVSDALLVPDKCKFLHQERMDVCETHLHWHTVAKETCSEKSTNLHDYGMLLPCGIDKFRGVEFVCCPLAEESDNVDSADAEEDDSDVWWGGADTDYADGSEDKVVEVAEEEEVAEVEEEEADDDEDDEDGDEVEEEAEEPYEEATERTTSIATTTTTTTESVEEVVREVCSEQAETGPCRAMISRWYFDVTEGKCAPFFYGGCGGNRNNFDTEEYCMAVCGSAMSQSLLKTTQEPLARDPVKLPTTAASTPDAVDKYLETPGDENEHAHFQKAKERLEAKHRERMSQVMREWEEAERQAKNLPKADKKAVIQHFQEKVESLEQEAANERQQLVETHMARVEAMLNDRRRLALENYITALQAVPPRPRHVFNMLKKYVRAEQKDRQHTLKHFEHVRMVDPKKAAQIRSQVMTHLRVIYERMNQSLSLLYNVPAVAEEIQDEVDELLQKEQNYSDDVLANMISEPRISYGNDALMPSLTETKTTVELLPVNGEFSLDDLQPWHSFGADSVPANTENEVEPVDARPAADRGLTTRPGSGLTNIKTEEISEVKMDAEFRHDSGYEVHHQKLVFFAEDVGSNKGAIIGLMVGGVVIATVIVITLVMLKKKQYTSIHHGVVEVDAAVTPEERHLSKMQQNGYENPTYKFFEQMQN
A short description of data set [16]: Inhibition of Cu2+-mediated aggregation of human amyloid beta (1 to 42 residues) at 25 uM after 24 hrs by thioflavin T-based fluorometric assay relative to control. It counts as functional.
Data set [17] concerns the target T3, Amine oxidase [flavin-containing] A (Homo sapiens, UniProt P21397).
T3 sequence (P21397 whole entry): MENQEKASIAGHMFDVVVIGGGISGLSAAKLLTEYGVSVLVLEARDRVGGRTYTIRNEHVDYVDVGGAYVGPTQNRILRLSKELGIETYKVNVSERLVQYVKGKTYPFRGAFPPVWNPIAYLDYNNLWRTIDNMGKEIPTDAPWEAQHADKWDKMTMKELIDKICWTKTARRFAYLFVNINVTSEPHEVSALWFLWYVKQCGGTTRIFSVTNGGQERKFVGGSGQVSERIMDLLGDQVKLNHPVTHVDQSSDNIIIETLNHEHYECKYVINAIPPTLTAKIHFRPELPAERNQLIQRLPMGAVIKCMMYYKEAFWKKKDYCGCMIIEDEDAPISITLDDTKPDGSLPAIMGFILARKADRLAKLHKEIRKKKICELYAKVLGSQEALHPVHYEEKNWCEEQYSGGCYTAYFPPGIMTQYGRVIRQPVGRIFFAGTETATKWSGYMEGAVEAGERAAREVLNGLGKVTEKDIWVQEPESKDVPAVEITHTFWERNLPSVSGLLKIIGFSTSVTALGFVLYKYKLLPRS
Nature of the data set: Inhibition of recombinant human MAO-A expressed in baculovirus infected BTI insect cells at 10 uM using kynuramine as substrate incubated for 30 mins by fluorescence assay relative to control. Particulars: 0.5 h.

Data set [18] concerns the target T4, Amine oxidase [flavin-containing] B (Homo sapiens, UniProt P27338).
T4 sequence (P27338 whole entry): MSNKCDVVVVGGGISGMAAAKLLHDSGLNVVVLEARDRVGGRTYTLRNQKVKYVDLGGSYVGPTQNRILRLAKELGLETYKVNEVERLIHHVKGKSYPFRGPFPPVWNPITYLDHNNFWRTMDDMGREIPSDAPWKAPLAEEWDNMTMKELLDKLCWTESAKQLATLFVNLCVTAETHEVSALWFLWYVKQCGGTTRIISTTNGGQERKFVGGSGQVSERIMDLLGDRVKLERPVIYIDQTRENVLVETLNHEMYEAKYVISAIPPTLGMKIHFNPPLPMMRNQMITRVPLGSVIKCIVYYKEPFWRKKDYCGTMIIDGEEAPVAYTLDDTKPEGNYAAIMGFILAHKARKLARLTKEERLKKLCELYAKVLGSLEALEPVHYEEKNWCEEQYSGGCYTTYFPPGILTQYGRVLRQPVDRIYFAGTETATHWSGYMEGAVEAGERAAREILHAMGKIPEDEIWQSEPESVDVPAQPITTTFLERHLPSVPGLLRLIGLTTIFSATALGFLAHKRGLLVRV
Kind of data set: Inhibition of recombinant human MAO-B expressed in baculovirus infected BTI insect cells at 10 uM using kynuramine as substrate incubated for 30 mins by fluorescence assay relative to control. To be noted: 0.5 h.

Data set [19] is described as follows: Permeability of compound at 100 ug/ml after 18 hrs by PAMPA. Type of data set: physicochemical. Particulars: read-out: permeability.
Data set [20] deals with PC-12. Nature of the data set: Neuroprotective activity against H2O2-induced damage in rat PC12 cells assessed as increase in cell viability at 100 uM pretreated for 2 hrs followed by H2O2 challenge measured after 24 hrs by MTT assay. Type of data set: functional, cell-based.
Data set [21] deals with PC-12. Kind of data set: Neuroprotective activity against H2O2-induced damage in rat PC12 cells assessed as reduction in LDH release at 100 uM pretreated for 2 hrs followed by H2O2 challenge measured after 24 hrs. Type of data set: functional, cell-based.
Data set [22] is described as follows: Metal chelating activity assessed as mole fraction of compound required to show 1:1 stoichiometry for Cu2+-compound complex at 37.5 uM after 30 mins by UV-vis spectrophotometric method. It counts as functional.

SMILES strings stand for the structures. The source made the active and inactive calls. The calls are words filed in the database; no cut-off is given here.

Sequence of Acetylcholinesterase (Homo sapiens, UniProt P22303) (P22303 whole entry): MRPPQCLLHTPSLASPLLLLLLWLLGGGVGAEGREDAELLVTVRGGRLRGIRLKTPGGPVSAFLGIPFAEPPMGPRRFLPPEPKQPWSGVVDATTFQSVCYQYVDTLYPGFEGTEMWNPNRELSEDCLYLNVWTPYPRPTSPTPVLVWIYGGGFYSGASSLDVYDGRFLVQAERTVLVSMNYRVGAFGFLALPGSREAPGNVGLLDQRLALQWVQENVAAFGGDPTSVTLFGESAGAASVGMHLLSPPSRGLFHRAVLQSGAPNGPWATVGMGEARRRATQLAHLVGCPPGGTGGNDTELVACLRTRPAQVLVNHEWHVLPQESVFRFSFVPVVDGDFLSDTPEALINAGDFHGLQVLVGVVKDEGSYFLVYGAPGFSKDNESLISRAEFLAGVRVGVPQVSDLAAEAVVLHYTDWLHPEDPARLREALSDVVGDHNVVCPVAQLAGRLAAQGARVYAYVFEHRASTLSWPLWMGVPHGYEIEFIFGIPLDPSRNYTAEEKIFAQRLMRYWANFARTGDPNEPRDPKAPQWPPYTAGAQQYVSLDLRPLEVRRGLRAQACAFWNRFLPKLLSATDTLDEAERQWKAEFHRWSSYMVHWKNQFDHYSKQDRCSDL

A word on the IC50: it is the concentration that inhibits the measured activity by half. Broadly, the inhibition is how much of the control response was suppressed. Usually Ki stands for the dissociation constant of the complex between target and ligand, obtained from inhibition or displacement. As for `COc1cc2c(cc1OC)C(=O)/C(=C/c1ccc(CN3CCCCC3)c(O)c1)O2`, the IC50 came to 8.78 nM on Acetylcholinesterase [1], 21.2 nM on Acetylcholinesterase [2] and 37.1 nM on Acetylcholinesterase [3]. The same compound came in with an inhibition at 0.25 h, 50 µM in data set [4] of 12.9%. The Ki at Acetylcholinesterase [5] turned out to be 12 nM. Moreover, the Activity was 1.66 equiv in [6], “Non-Toxic” with PC-12 [7] and 0.5 molar ratio in data set [14]. In addition, the result (in the data set with PC-12 [8]; in the data set on PC-12 [9]; in data set [11]; in data set [12]; in data set [13]) was Active. Further, the outcome in data set [10] was inactive. The inhibition in data set [15] turned out to be 58.1%; in data set [16], 45.1%. The inhibition at 10 µM came to 15.3% in [17] and 32% in data set [18]. In addition, the Papp at 18 h, 100 ug/ml in [19] stood at 13.5 ×10⁻⁶ cm/s.
Take `Cc1c(C)c2c(c(C)c1O)CCC(C)(C(=O)O)O2` (stereo unspecified): the result with PC-12 [20] and in the data set with PC-12 [21] was Active.
`CCN(Cc1ccc(/C=C2\Oc3cc(OC)c(OC)cc3C2=O)cc1O)Cc1ccccc1N(C)C`: the values for the IC50 at Acetylcholinesterase [1], on Acetylcholinesterase [2] and against Acetylcholinesterase [3] were 7320 nM, 6400 nM and 6690 nM, respectively. This compound also gave an inhibition at 0.25 h, 50 µM in [4] of 19.6%. For the same compound, the Activity in data set [6] was found to be 1.56 equiv; in [22] it was 0.98 molar ratio. For the same compound, the outcome in [10], in [11], in [12] and in data set [13] was Active. For the same compound, the inhibition in data set [15] is 78.3%; in data set [16], 72.6%. Moreover, the figures for the inhibition at 10 µM in data set [17] and in data set [18] were 15.3% and 38.1%, respectively. Also, in [19], the Papp at 18 h, 100 ug/ml was found to be 12.2 ×10⁻⁶ cm/s.
